In one data set the test system is E. coli MG1655 wild-type. The data set can be described thus: Toxicity of methylglyoxal, growth inhibition of wild-type. It is filed as cell-based. Particulars: minimal medium with pure glycerol 10 g/l; microtiterplates, 37° C.; OD580 48.5 h after inoculation. How it is done: (§1) E. coli MG1655 wild-type or mutants inactivated in the genes gloA and gloB, respectively, were cultivated in minimal-medium with pure-glycerol (10 g/l) as source for carbon and energy containing different amounts of methylglyoxal. Tests for methylglyoxal indicated a period of at least 72 h of chemical stability. E. coli was cultivated in microtiterplates without agitation at 37° C. under a humid atmosphere. Growth was determined at OD580 48.5 h after inoculation (FIG. 1; black bars, E. coli MG1655 wild-type; grey bars, E. coli MG1655 gloA-mutant; hatched bars, E. coli MG1655 gloB-mutant).

In data set [1] the test system is E. coli MG1655 gloA-mutant. The data set can be described thus: Toxicity of methylglyoxal, growth inhibition of gloA-mutant. The class given is cell-based. Particulars: gloA (glyoxylase I) mutant, especially sensitive; OD580 48.5 h after inoculation. How it is done: as §1
Data set [2] has as its system E. coli MG1655 gloB-mutant. Nature of the data set: Toxicity of methylglyoxal, growth inhibition of gloB-mutant. It is filed as cell-based. Particulars: OD580 48.5 h after inoculation. How it is done: as §1
Data set [3] in a line: Chemical stability of methylglyoxal. The class given is physicochemical. How it is done:
as §1

Data set [4] relates to E. coli MG1655. Nature of the data set: Biomass production of E. coli MG1655 on crude or pure glycerol. It is filed as cell-based. Particulars: oxic conditions, unregulated pH, cultivation tubes. How it is done: E. coli was cultured in a defined minimal medium that was designed to contain low levels of phosphate, since phosphate is a known inhibitor of methyglyoxal synthase. Per liter, the medium contained: E. coli strains were routinely propagated in cultivation tubes (total volume 30 ml. Inoculum 5 ml) or glass bottles sealed with rubber-stoppers (total volume 12 ml, inoculum 10 ml) for creating semi-anoxic conditions. The term “cultivation under oxic conditions” implies cultivation in non-sealed containments with agitation. Semi-anoxic in that context means cultivation of strains without agitation in medium that was prepared under oxic conditions and in closed containments, e.g. bottles sealed with rubber-stoppers upon inoculation to avoid diffusing in of external oxygen. Cultivation times varied between 2 and 5 days, for oxic and semi-anoxic conditions, respectively. […] [table]

The test system of data set [5] is E. coli MG1655. Nature of the data set: Potential of impurities in crude glycerol to substitute for macro-elements of minimal medium (biomass production). The class given is cell-based. Particulars: glycerol 10 g/l, oxic, unregulated pH.
For data set [6], the system named is E. coli DH5alpha araB-knockout. Nature of the data set: Growth on glucose or glycerol as carbon source, control strain. It is filed as cell-based. Particulars: no plasmid, carbon source 10 g/l, 37° C., oxic, 5 days. The text has this: (§2) Genes gldA from E. coli encoding […], dhaK from Citrobacter freundii encoding dihydroxyacetone kinase (dhaK) and fucO from E. coli encoding propanediol-oxidoreductase were cloned in plasmid pB2araJ to give plasmid pDP_gdf. Plasmid pDP_mgdf additionally contains methylglyoxal synthase from E. coli. According to known biochemical pathways, propanediol oxidoreductase is not relevant for this example. However, we tested plasmid pDP_gdf and its derivative, pDP_mgdf for functional complementation of a glpK-knock out, since these plasmids are relevant for recombinant 1,2-PD production.
(§3) Thus, an inducible unregulated pathway independent of the endogenous route to metabolise glycerol was established. The biomass finally obtained is equal or even higher compared to growth of a control strain (DH5alpha[…]araB) or when glucose is the substrate for growth.

Data set [7] deals with E. coli DH5alpha araB glpK mutant. Nature of the data set: Growth on glucose or glycerol as carbon source, glpK mutant. The class given is cell-based. Particulars: no plasmid, carbon source 10 g/l, 37° C., oxic, 5 days.
From the text: as §2, §3

In data set [8] the test system is E. coli DH5alpha araB glpK mutant with plasmid pDP_gdf. Nature of the data set: Growth on glucose or glycerol as carbon source, glpK mutant with plasmid pDP_gdf. The class given is cell-based. Particulars: carbon source 10 g/l, 37° C., oxic, 5 days.
From the text: as §2, §3

Data set [9] relates to E. coli DH5alpha araB glpK mutant with plasmid pDP_mgdf. The data set can be described thus: Growth on glucose or glycerol as carbon source, glpK mutant with plasmid pDP_mgdf. It is filed as cell-based. Particulars: carbon source 10 g/l, 37° C., oxic, 5 days.
From the text: as §2, §3

This note sets out measurements from patent US20110124069A1, “PRODUCTION METHOD” (priority 2008, published 2011).

SMILES strings stand for the structures.

As to `CC(=O)C=O` [methylglyoxal], the “extracellular concentration of methylglyoxal at which inhibition of growth was observed” value in the data set with E. coli MG1655 wild-type is given as at least 2.5 mM. Further, the “sensitivity of growth to methylglyoxal compared with wild-type” value in data set [1] and in data set [2] was “significantly more sensitive” in each case. In addition, the “period of chemical stability” value in [3] is reported as “at least 72 h”.
On to `OCC(O)CO` [pure glycerol, glycerol], for which the “Biomass production [OD580] Ø” value with E. coli MG1655 [4] (substrate 0.63 g/l) is on record as 0.5 OD580; in the data set on E. coli MG1655 [4] (substrate 1.25 g/l), 0.6 OD580; with E. coli MG1655 [4] (substrate 2.5 g/l) it was 1.2 OD580; in the data set on E. coli MG1655 [4] (substrate 10 g/l), 5.0 OD580; in the data set with E. coli MG1655 [4] (substrate 20 g/l) it was 6.0 OD580; in the data set with E. coli MG1655 [4] (substrate 40 g/l), 5.7 OD580. The “Biomass production [OD580] Ø” value in the data set with E. coli MG1655 [5] (culture broth devoid of nitrogen) was determined as 1.1 OD580; with E. coli MG1655 [5] (culture broth devoid of none) it was 2.5 OD580; with E. coli MG1655 [5] (culture broth devoid of phosphate) it was 1.2 OD580; in the data set with E. coli MG1655 [5] (culture broth devoid of sulfate) it was 1.0 OD580; with E. coli MG1655 [5] (culture broth devoid of trace-elements), 2.4 OD580. Also, the “Biomass production OD580” value in [6] amounted to 2.0 OD580; in data set [7], 0.1 OD580; in [8], 4.5 OD580; in data set [9], 5.5 OD580.
